Experimental data as given in PubChem BioAssay AID328 (DTP/NCI, 2004).
Values joined by “and” are separate entries in the source; they are usually repeats but may differ in a detail not shown here. Identical values can stand only once. Inconclusive results and toxic doses are left out.

Test system: BDF1 mice, P388 leukemia ip, median survival T/C
Assay: NCI In Vivo Anticancer Drug Screen. Data for tumor model P388 Leukemia (intraperitoneal) in B6D2F1 (BDF1) mice
Conditions: endpoint: median survival time, higher = longer survival
Method: The antitumor activity of compounds was measured in mice bearing transplantable tumors. Survival or tumor size were measured and the results are expressed as the measurement made in the treated group (T) divided by the measurement made in the vehicle treated control group (C). The tumor model used in this assay is P388 Leukemia (intraperitoneal) in B6D2F1 (BDF1) mice

[1] = dose: 100.0 mg/kg/injection, schedule: Q01DX009 (ip), vehicle: saline with Tween-80
[2] = dose: 200.0 mg/kg/injection, schedule: Q01DX009 (ip), vehicle: saline with Tween-80
[3] = dose: 400.0 mg/kg/injection, schedule: Q01DX009 (ip), vehicle: saline with Tween-80
[4] = dose: 200.0 mg/kg/injection, schedule: Q01DX009 (ip), vehicle: Klucel (hydroxypropylcellulose) (HPC)
[5] = dose: 50.0 mg/kg/injection, schedule: Q01DX009 (ip), vehicle: saline with Tween-80
[6] = dose: 100.0 mg/kg/injection, schedule: Q04DX003 (ip), vehicle: saline with Tween-80
[7] = dose: 200.0 mg/kg/injection, schedule: Q04DX003 (ip), vehicle: saline with Tween-80
[8] = dose: 400.0 mg/kg/injection, schedule: Q04DX003 (ip), vehicle: saline with Tween-80
[9] = dose: 100.0 mg/kg/injection, schedule: Q01DX009 (ip), vehicle: saline
[10] = dose: 200.0 mg/kg/injection, schedule: Q01DX009 (ip), vehicle: saline
[11] = dose: 400.0 mg/kg/injection, schedule: Q01DX009 (ip), vehicle: saline
[12] = dose: 50.0 mg/kg/injection, schedule: Q01DX009 (ip), vehicle: saline
[13] = dose: 100.0 mg/kg/injection, schedule: Q04DX003 (ip), vehicle: saline
[14] = dose: 200.0 mg/kg/injection, schedule: Q04DX003 (ip), vehicle: saline
[15] = dose: 400.0 mg/kg/injection, schedule: Q04DX003 (ip), vehicle: saline
[16] = dose: 150.0 mg/kg/injection, schedule: Q01DX009 (ip), vehicle: saline with Tween-80
[17] = dose: 100.0 mg/kg/injection, schedule: Q01DX001 (ip), vehicle: saline with Tween-80
[18] = dose: 200.0 mg/kg/injection, schedule: Q01DX001 (ip), vehicle: saline with Tween-80
[19] = dose: 400.0 mg/kg/injection, schedule: Q01DX001 (ip), vehicle: saline with Tween-80
[20] = dose: 50.0 mg/kg/injection, schedule: Q01DX005 (ip), vehicle: saline with Tween-80
[21] = dose: 100.0 mg/kg/injection, schedule: Q01DX005 (ip), vehicle: saline with Tween-80
[22] = dose: 200.0 mg/kg/injection, schedule: Q01DX005 (ip), vehicle: saline with Tween-80

In the case of Clc1cccc(-c2nc3ccccc3c3ccccc23)c1, the T/C [1] is reported as 105 % of control, the T/C [2] is reported as 120 % of control and the T/C [3] is reported as 95 % of control.
In the case of O=C(/C=C/C(=O)Oc1ccccc1)Oc1ccccc1, the T/C (dose: 100.0 mg/kg/injection, schedule: Q01DX009 (ip), vehicle: Klucel (hydroxypropylcellulose) (HPC)) is reported as 90 % of control, the T/C [4] is reported as 109 % of control and the T/C (dose: 400.0 mg/kg/injection, schedule: Q01DX009 (ip), vehicle: Klucel (hydroxypropylcellulose) (HPC)) is reported as 90 % of control.
In the case of COc1ccc2c(c1)CC1NCCc3cc4c(c-2c31)OCO4 (centres undefined), the T/C [5] is reported as 114 % of control and the T/C [1] is reported as 97 % of control.
In the case of Cc1ccc(NC(=O)COc2cc(Cl)c(Cl)cc2Cl)cc1C, the T/C [6] is reported as 90 % of control, the T/C [7] is reported as 90 % of control and the T/C [8] is reported as 86 % of control.
COC(=O)C/C(=C/C=C1/C(=O)ON=C1C)c1c(C)[nH]oc1=O was tested, and the T/C [9] was 90 % of control, the T/C [10] was 100 % of control and the T/C [11] was 95 % of control.
In the case of C/C(=C\c1ccc(N(C)C)cc1C)[N+](=O)[O-], the T/C [5] is reported as 116 % of control and 118 % of control, the T/C [1] is reported as 114 % of control and 124 % of control and the T/C [2] is reported as 122 % of control.
In the case of CCCCCCCCCCCCCCCC(=O)NCCO, the T/C (dose: 100.0 mg/kg/injection, schedule: Q04DX003 (ip), vehicle: saline sonified) is reported as 91 % of control.
For Nc1nc(=O)n(CC(=O)c2ccco2)cc1F, the T/C [12] was 109 % of control, the T/C [9] was 95 % of control and 100 % of control and the T/C [10] was 118 % of control.
For O=C(CNC(=O)Nc1n[nH]c(=S)s1)N/N=C/c1ccccc1O, the T/C [5] was 100 % of control, the T/C [1] was 91 % of control and the T/C [2] was 98 % of control.
With CN(CCCN(C)N=Nc1ccccc1C(=O)O)N=Nc1ccccc1C(=O)O the T/C [13] was 92 % of control, the T/C [14] was 88 % of control and the T/C [15] was 92 % of control.
For O=C(Nc1cccc(Cl)c1)C1CCCC1=Nc1cccc(Cl)c1 (centres undefined), the T/C [5] was 100 % of control and the T/C [1] was 106 % of control.
In the case of OC(OCCCCCCOC(O)C(Cl)(Cl)Cl)C(Cl)(Cl)Cl (centres undefined), the T/C [6] is reported as 95 % of control, the T/C [7] is reported as 95 % of control and the T/C [8] is reported as 90 % of control.
With CC(=O)OC1CCC2(C)C(CC(=O)C(C)C2(O)CCc2ccoc2)C1(C)C (centres undefined) the T/C (dose: 25.0 mg/kg/injection, schedule: Q01DX009 (ip), vehicle: saline + alcohol) was 91 % of control, the T/C (dose: 50.0 mg/kg/injection, schedule: Q01DX009 (ip), vehicle: saline + alcohol) was 112 % of control and the T/C (dose: 100.0 mg/kg/injection, schedule: Q01DX009 (ip), vehicle: saline + alcohol) was 112 % of control.
With O=C(Nc1ncn[nH]1)C(=O)Nc1ncn[nH]1 the T/C [1] was 102 % of control and the T/C [2] was 100 % of control.
For O=C1c2ccc(O)cc2C(=O)c2ccc(O)cc21, the T/C (dose: 66.0 mg/kg/injection, schedule: Q01DX009 (ip), vehicle: saline with Tween-80) was 109 % of control, the T/C [1] was 109 % of control and the T/C [16] was 109 % of control. The T/C [3] was 120 % of control.
With S=c1nc[nH]c2c1ncn2C1CCCO1 (centres undefined) the T/C [5] was 95 % of control and the T/C [1] was 118 % of control.
O=C(O)C1CCCN1C(=O)CCS (centres undefined) was tested, and the T/C [12] was 90 % of control, the T/C [9] was 90 % of control and the T/C [10] was 97 % of control.
In the case of O=c1ccc2ccccc2o1, the T/C (dose: 50.0 mg/kg/injection, schedule: Q01DX010 (ip), vehicle: saline) is reported as 100 % of control, the T/C (dose: 100.0 mg/kg/injection, schedule: Q01DX010 (ip), vehicle: saline) is reported as 90 % of control and the T/C (dose: 200.0 mg/kg/injection, schedule: Q01DX010 (ip), vehicle: saline) is reported as 90 % of control. The T/C (dose: 400.0 mg/kg/injection, schedule: Q01DX010 (ip), vehicle: saline) was 95 % of control.
With O=C(Nc1cccc2cccnc12)C12CC3CC(CC(C3)C1)C2 the T/C [5] was 96 % of control, the T/C [1] was 96 % of control and the T/C [2] was 100 % of control.
CCC(=O)NC was tested, and the T/C [9] was 122 % of control, the T/C [13] was 100 % of control and the T/C [10] was 100 % of control. For the same compound, the T/C [14] was 104 % of control, the T/C [11] was 109 % of control and the T/C [15] was 100 % of control.
In the case of CC1=Nc2ccccc2/C1=C\c1c(C)[nH]c2ccccc12, the T/C (dose: 5.5 mg/kg/injection, schedule: Q01DX009 (ip), vehicle: Klucel (hydroxypropylcellulose) (HPC)) is reported as 109 % of control, the T/C (dose: 8.2 mg/kg/injection, schedule: Q01DX009 (ip), vehicle: Klucel (hydroxypropylcellulose) (HPC)) is reported as 118 % of control and the T/C (dose: 12.5 mg/kg/injection, schedule: Q01DX009 (ip), vehicle: Klucel (hydroxypropylcellulose) (HPC)) is reported as 161 % of control. The T/C (dose: 33.0 mg/kg/injection, schedule: Q01DX009 (ip), vehicle: Klucel (hydroxypropylcellulose) (HPC)) was 103 % of control and 109 % of control, the T/C (dose: 75.0 mg/kg/injection, schedule: Q01DX009 (ip), vehicle: Klucel (hydroxypropylcellulose) (HPC)) was 96 % of control and 113 % of control and the T/C [4] was 154 % of control.
CCOC(=O)c1c(C(=O)OCC)c(C)n(NC(=S)NC)c1C was tested, and the T/C (dose: 75.0 mg/kg/injection, schedule: Q01DX009 (ip), vehicle: saline with Tween-80) was 103 % of control, the T/C [16] was 89 % of control and the T/C (dose: 300.0 mg/kg/injection, schedule: Q01DX009 (ip), vehicle: saline with Tween-80) was 93 % of control.
Cc1ccc(S(=O)(=O)N2CC(O)CC2C(=O)O)cc1 (centres undefined) was tested, and the T/C [17] was 118 % of control, the T/C [18] was 100 % of control and the T/C [19] was 113 % of control.
For CC(C)(C)C1CCC(C#N)(NNc2ccccc2)CC1 (centres undefined), the T/C [20] was 90 % of control, the T/C [21] was 106 % of control and the T/C [22] was 89 % of control.
In the case of O=C1c2c(O)ccc([N+](=O)[O-])c2C(=O)c2c([N+](=O)[O-])ccc(O)c21, the T/C (dose: 100.0 mg/kg/injection, schedule: Q04DX003 (ip), vehicle: Klucel (hydroxypropylcellulose) (HPC)) is reported as 118 % of control, the T/C (dose: 200.0 mg/kg/injection, schedule: Q04DX003 (ip), vehicle: Klucel (hydroxypropylcellulose) (HPC)) is reported as 122 % of control and the T/C (dose: 400.0 mg/kg/injection, schedule: Q04DX003 (ip), vehicle: Klucel (hydroxypropylcellulose) (HPC)) is reported as 113 % of control.
In the case of CN1CCC2(CC1)c1ccccc1-c1ccccc12, the T/C [5] is reported as 109 % of control and the T/C [1] is reported as 100 % of control.
For CNC(=N)c1ccc(NC(=N)c2ccc(NC(=N)c3ccc(NC(=O)Nc4ccc(C(=N)Nc5ccc(C(=N)Nc6ccc(C(=N)NC)cc6)cc5)cc4)cc3)cc2)cc1, the T/C (dose: 12.5 mg/kg/injection, schedule: Q04DX003 (ip), vehicle: saline with Tween-80) was 150 % of control, the T/C (dose: 19.0 mg/kg/injection, schedule: Q04DX003 (ip), vehicle: saline with Tween-80) was 162 % of control and 186 % of control and the T/C (dose: 25.0 mg/kg/injection, schedule: Q01DX009 (ip), vehicle: saline with Tween-80) was 165 % of control and 180 % of control. For the same compound, the T/C (dose: 25.0 mg/kg/injection, schedule: Q04DX003 (ip), vehicle: saline with Tween-80) was 163 % of control, the T/C (dose: 29.0 mg/kg/injection, schedule: Q04DX003 (ip), vehicle: saline with Tween-80) was 272 % of control and 172 % of control and the T/C (dose: 44.0 mg/kg/injection, schedule: Q04DX003 (ip), vehicle: saline with Tween-80) was 231 % of control and 195 % of control. For the same compound, the T/C [5] was 230 % of control, the T/C (dose: 66.0 mg/kg/injection, schedule: Q04DX003 (ip), vehicle: saline with Tween-80) was 200 % of control and the T/C (dose: 67.0 mg/kg/injection, schedule: Q04DX003 (ip), vehicle: saline with Tween-80) was 229 % of control and 195 % of control. The T/C [1] was 92 % of control and the T/C [6] was 250 % of control and 222 % of control.
For COC(=O)CCC(C)C1CCC2C3CCC4CC(SC(=N)N)CCC4(C)C3CCC12C (centres undefined), the T/C (dose: 1.56 mg/kg/injection, schedule: Q01DX009 (ip), vehicle: suspension in saline) was 93 % of control, the T/C (dose: 3.13 mg/kg/injection, schedule: Q01DX009 (ip), vehicle: suspension in saline) was 100 % of control and the T/C (dose: 6.25 mg/kg/injection, schedule: Q01DX009 (ip), vehicle: suspension in saline) was 109 % of control. For the same compound, the T/C [5] was 105 % of control and the T/C [1] was 103 % of control.
In the case of CCN(CC)c1oc2ccc3ccccc3c2c(=O)c1Cl, the T/C [5] is reported as 97 % of control, the T/C [1] is reported as 94 % of control and the T/C [2] is reported as 92 % of control.
O=C(O)CS(=O)c1ccc2c3c(cccc13)C(=O)c1ccccc1-2 (centres undefined) was tested, and the T/C [20] was 87 % of control, the T/C [21] was 94 % of control and the T/C [22] was 94 % of control.
In the case of COC(OC)c1nc(SC)[nH]c(=O)c1C, the T/C [1] is reported as 91 % of control, the T/C [6] is reported as 100 % of control and the T/C [2] is reported as 95 % of control. The T/C [7] was 100 % of control and the T/C [8] was 95 % of control.
With CC(=O)NC(N)=O the T/C [17] was 100 % of control, the T/C [18] was 100 % of control and the T/C [19] was 109 % of control.
